Here are results for eleven compounds from patent publication US7893077B2, “Bisaryl-sulfonamides” (Amgen Inc., priority 2004, dated 2011).

This test addresses T1, PPARγ (Homo sapiens, UniProt P37231).
T1 construct: made in house
T1 sequence (P37231 1-505): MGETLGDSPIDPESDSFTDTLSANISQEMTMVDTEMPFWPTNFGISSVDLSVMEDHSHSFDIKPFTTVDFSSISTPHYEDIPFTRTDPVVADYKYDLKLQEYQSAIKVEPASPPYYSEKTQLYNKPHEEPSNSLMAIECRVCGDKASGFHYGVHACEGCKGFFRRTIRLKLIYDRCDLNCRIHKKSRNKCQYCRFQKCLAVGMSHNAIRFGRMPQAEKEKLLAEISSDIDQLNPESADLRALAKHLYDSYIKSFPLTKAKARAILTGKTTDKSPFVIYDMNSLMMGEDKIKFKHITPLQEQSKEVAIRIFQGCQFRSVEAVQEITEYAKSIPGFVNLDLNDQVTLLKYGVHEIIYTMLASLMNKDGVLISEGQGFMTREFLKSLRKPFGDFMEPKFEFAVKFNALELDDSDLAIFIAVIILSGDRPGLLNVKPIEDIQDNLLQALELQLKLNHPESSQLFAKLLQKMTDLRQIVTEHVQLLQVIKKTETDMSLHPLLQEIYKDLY
Put plainly: PPARγ ligand binding assay utilizing [3H]-BRL 49653 as the radioligand (filtration). As to conditions: concentration required to reduce by 50% the specific binding of [3H]-BRL 49653. The procedure, abridged:
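Displacement of 10 nM [3H]-BRL 49653 from PPARγ-GST fusion protein in Tris-HCl pH 8.0 buffer with KCl, DTT, BSA and NP-40, 15 min incubation, then glutathione-bead capture for 1 h. Bound radioactivity counted after filtration washes; IC50 is concentration giving 50% loss of specific binding, reported in ranges.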

For the compound `CCN(CC)S(=O)(=O)c1ccc(Sc2ccc(NS(=O)(=O)c3ccc(C(F)(F)F)cc3Cl)nc2C(=O)C2CC2)cc1` [Compound 100, 2-Chloro-N-[6-cyclopropanecarbonyl-5-(4-diethylsulfamoyl-phenylsulfanyl)-pyridin-2-yl]-4-trifluoromethyl-benzenesulfonamide], the half-maximal inhibitory concentration (IC50) (usually the midpoint of a concentration-inhibition curve) was less than 1000 nM.
`CCCC(=O)c1nc(NS(=O)(=O)c2ccc(C(F)(F)F)cc2Cl)ccc1Sc1ccc(S(=O)(=O)C2CCOCC2)cc1` [Compound 101, N-{6-Butyryl-5-[4-(tetrahydro-pyran-4-sulfonyl)-phenylsulfanyl]-pyridin-2-yl}-2-chloro-4-trifluoromethyl-benzenesulfonamide] came in with a half-inhibitory concentration (IC50) of less than 1000 nM.
In the case of `O=C(c1nc(NS(=O)(=O)c2ccc(C(F)(F)F)cc2Cl)ccc1Sc1ccc(S(=O)(=O)C2CCOCC2)cc1)C1CC1` [Compound 102, 2-Chloro-N-{6-cyclopropanecarbonyl-5-[4-(tetrahydro-pyran-4-sulfonyl)-phenylsulfanyl]-pyridin-2-yl}-4-trifluoromethyl-benzenesulfonamide] it was less than 1000 nM; in that of `Cc1nc(NS(=O)(=O)c2ccc(C(F)(F)F)cc2Cl)ccc1Sc1ccc(S(=O)(=O)N2CCOCC2)cc1` [Compound 103, 2-Chloro-N-{6-methyl-5-[4-(morpholine-4-sulfonyl) -phenylsulfanyl]-pyridin-2-yl}-4-trifluoromethyl-benzenesulfonamide], less than 1000 nM; in that of `CCc1nc(NS(=O)(=O)c2ccc(Cl)cc2Cl)ccc1Sc1ccc(S(=O)(=O)N2CCOCC2)cc1` [Compound 104, 2,4-Dichloro-N-{6-ethyl-5-[4-(morpholine-4-sulfonyl) -phenylsulfanyl]-pyridin-2-yl}-benzenesulfonamide], less than 10000 nM.
Consider `CCc1nc(NS(=O)(=O)c2ccc(C(F)(F)F)cc2Cl)ccc1Sc1ccc(S(=O)(=O)N2CCOCC2)cc1` [Compound 105, 2-Chloro-N-{6-ethyl-5-[4-(morpholine-4-sulfonyl) -phenylsulfanyl]-pyridin-2-yl}-4-trifluoromethyl-benzenesulfonamide], for which the half-maximal inhibitory concentration (IC50) is less than 10000 nM.
In the case of `CCCC(=O)c1nc(NS(=O)(=O)c2ccc(Cl)cc2Cl)ccc1Sc1ccc(S(=O)(=O)C(C)C)cc1` [Compound 106, N-{6-Butyryl-5-[4-(propane-2-sulfonyl)-phenylsulfanyl]-pyridin-2-yl}-2,4-dichloro-benzenesulfonamide] it was less than 1000 nM.
In turn, `CC(C)S(=O)(=O)c1ccc(Sc2ccc(NS(=O)(=O)c3ccc(Cl)cc3Cl)nc2C(=O)C2CC2)cc1` [Compound 107, 2,4-Dichloro-N-{6-cyclopropanecarbonyl-5-[4-(propane-2-sulfonyl)-phenylsulfanyl]-pyridin-2-yl}-benzenesulfonamide] gave an IC50 of less than 1000 nM.
In the case of `O=S(=O)(Nc1ccc(Sc2ccc(S(=O)(=O)N3CCOCC3)cc2)c(C(F)(F)F)n1)c1ccc(Cl)cc1Cl` [Compound 108, 2,4-Dichloro-N-{5-[4-(morpholine-4-sulfonyl)-phenylsulfanyl]-6-trifluoromethyl-pyridin-2-yl}-benzenesulfonamide] it was less than 10000 nM; in that of `O=S(=O)(Nc1ccc(Sc2ccc(S(=O)(=O)N3CCOCC3)cc2)c(C(F)(F)F)n1)c1ccc(C(F)(F)F)cc1Cl` [Compound 109, 2-Chloro-N-{5-[4-(morpholine-4-sulfonyl)-phenylsulfanyl]-6-trifluoromethyl-pyridin-2-yl}-4-trifluoromethyl-benzenesulfonamide], less than 10000 nM.
On to `CCCOc1nc(NS(=O)(=O)c2ccc(C(F)(F)F)cc2Cl)ccc1Sc1ccc(S(=O)(=O)N2CCCCC2)cc1` [Compound 110, 2-Chloro-N-{5-[4-(piperidine-1-sulfonyl)-phenylsulfanyl]-6-propoxy-pyridin-2-yl}-4-trifluoromethyl-benzenesulfonamide], for which the IC50 was less than 10000 nM.
